Patent EP0562832A1, “Indole and indazole derivatives, for the treatment and prophylaxis of cerebral disorders, their preparation and their use” (priority 1992, dated 1993)
Structures can show the parent of a compound that is named as a salt.

Target: T1, acetylcholinesterase (Mus musculus, UniProt P21836)
T1 construct: The mouse brain was homogenised by means of a 5-fold amount of a 100 mM phosphate buffer (pH 8.0) to prepare an enzyme sample; from tissue; host or cells: brain of male ddY mice, 5 to 7 weeks old (Japan SLC)
T1 sequence (P21836 32-614): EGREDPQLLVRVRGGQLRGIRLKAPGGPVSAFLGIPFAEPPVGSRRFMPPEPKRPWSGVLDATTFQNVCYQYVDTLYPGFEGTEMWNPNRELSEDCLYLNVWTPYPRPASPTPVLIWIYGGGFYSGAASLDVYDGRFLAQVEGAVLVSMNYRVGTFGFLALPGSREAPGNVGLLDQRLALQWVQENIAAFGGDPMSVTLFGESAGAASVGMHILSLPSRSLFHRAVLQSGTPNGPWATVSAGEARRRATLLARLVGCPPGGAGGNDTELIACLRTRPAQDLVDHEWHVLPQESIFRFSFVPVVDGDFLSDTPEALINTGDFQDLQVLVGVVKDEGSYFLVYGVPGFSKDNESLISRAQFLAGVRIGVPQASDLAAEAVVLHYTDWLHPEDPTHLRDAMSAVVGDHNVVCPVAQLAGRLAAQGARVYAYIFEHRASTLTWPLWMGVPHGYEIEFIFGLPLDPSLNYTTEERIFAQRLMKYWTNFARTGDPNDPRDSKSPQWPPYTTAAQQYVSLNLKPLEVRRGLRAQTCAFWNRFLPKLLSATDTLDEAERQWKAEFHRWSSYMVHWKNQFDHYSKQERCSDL
Test: Assay of acetylcholinesterase inhibitory activity (Elman's method, mouse brain homogenate)
Assay type: biochemical

Structure (SMILES) | IC50
CCc1ccc2c(C(=O)CCC3CCN(Cc4ccccc4)CC3)cn(C)c2c1 [1-16] | 4 nM
Cn1cc(C(=O)CCC2CCN(Cc3cccc(F)c3)CC2)c2cc(F)ccc21 [1-315, 1-Methyl-3-{3-[1-(3-fluorobenzyl)-4-piperidyl]propionyl}-5-fluoroindole oxalate] | 2.3 nM
Cc1ccc2c(c1)c(C(=O)CCC1CCN(Cc3ccccc3)CC1)nn2C [2-8] | 13 nM
Cn1nc(C(=O)C=CC2CCN(Cc3ccccc3)CC2)c2c(Cl)cccc21 [2-23] | 11 nM
Cn1nc(C(=O)CCC2CCN(Cc3ccccc3)CC2)c2c(Cl)cccc21 [2-24] | 10 nM
Cn1cc(C(=O)CCC2CCN(Cc3ccccc3)CC2)c2ccccc21 [Compound No. 1-2, 1-Methyl-3-[3-(1-benzyl-4-piperidyl)propionyl]indole] | 3.3 nM
Cn1cc(C(=O)CCC2CCN(Cc3ccccc3)CC2)c2ccccc21 [Compound No. 1-4, 1-Methyl-3-[3-(1-benzyl-4-piperidyl)propionyl]indole oxalate] | 10 nM
Cn1cc(C(=O)CCC2CCN(Cc3ccccc3)CC2)c2cc(Cl)ccc21 [Compound No. 1-28, 1-Methyl-3-[3-(1-benzyl-4-piperidyl)propionyl]-5-chloroindole] | 4 nM
Cn1cc(C(=O)CCC2CCN(Cc3ccccc3)CC2)c2ccc(Cl)cc21 [Compound No. 1-30, 1-Methyl-3-[3-(1-benzyl-4-piperidyl)propionyl]-6-chloroindole] | 9 nM
Cn1cc(C(=O)CCC2CCN(Cc3ccccc3)CC2)c2cc(F)ccc21 [Compound No. 1-40, 1-Methyl-3-[3-(1-benzyl-4-piperidyl)propionyl]-5-fluoroindole] | 4 nM
Cn1cc(C(=O)CCC2CCN(Cc3cccc(F)c3)CC2)c2ccccc21 [Compound No. 1-78, 1-Methyl-3-{3-[1-(3-fluorobenzyl)-4-piperidyl]propionyl}indole] | 8 nM
Cn1cc(C(=O)CCC2CCN(Cc3cccc(Cl)c3)CC2)c2ccccc21 [Compound No. 1-85, 1-Methyl-3-{3-[1-(3-chlorobenzyl)-4-piperidyl]propionyl}indole hydrochloride] | 6.5 nM
Cn1cc(C(=O)CCC2CCN(Cc3cccs3)CC2)c2ccccc21 [Compound No. 1-116, 1-Methyl-3-{3-[1-(2-thienylmethyl)-4-piperidyl]propionyl}indole] | 10 nM
Cn1cc(C(=O)CCC2CCN(Cc3cccc(Cl)c3)CC2)c2cc(Cl)ccc21 [Compound No. 1-304, 1-Methyl-3-{3-[1-(3-chlorobenzyl)-4-piperidyl]propionyl}-5-chloroindole hydrochloride] | 7.5 nM
Cn1cc(C(=O)CCC2CCN(Cc3cccc(F)c3)CC2)c2cc(Cl)ccc21 [Compound No. 1-309, 1-Methyl-3-{3-[1-(3-fluorobenzyl)-4-piperidyl]propionyl}-5-chloroindole] | 8.2 nM
Cn1cc(C(=O)CCC2CCN(Cc3cccc(F)c3)CC2)c2cc(F)ccc21 [Compound No. 1-313, 1-Methyl-3-{3-[1-(3-fluorobenzyl)-4-piperidyl]propionyl}-5-fluoroindole] | 2 nM
Cn1cc(C(=O)CCC2CCN(Cc3cccc(F)c3)CC2)c2cc(F)ccc21 [Compound No. 1-314, 1-Methyl-3-{3-[1-(3-fluorobenzyl)-4-piperidyl]propionyl}-5-fluoroindole hydrochloride] | 3.4 nM
Cn1nc(C(=O)CCC2CCN(Cc3ccccc3)CC2)c2ccccc21 [Compound No. 2-2, 1-Methyl-3-[3-(1-benzyl-4-piperidyl)propionyl]indazole] | 10 nM
Cn1nc(C(=O)CCC2CCN(Cc3ccccc3)CC2)c2ccccc21 [Compound No. 2-3, 1-Methyl-3-[3-(1-benzyl-4-piperidyl)propionyl]indazole hydrochloride] | 12 nM
Cc1ccc2c(C(=O)C=CC3CCN(Cc4ccccc4)CC3)nn(C)c2c1 [Compound No. 2-9] | 14 nM
Cn1nc(C(=O)CCC2CCN(Cc3ccccc3Cl)CC2)c2ccccc21 [Compound No. 2-96, 1-Methyl-3-{3-[1-(2-chlorobenzyl)-4-piperidyl]propionyl}indazole hydrochloride] | 13.9 nM
Cn1nc(C(=O)CCC2CCN(Cc3cccc(Cl)c3)CC2)c2ccccc21 [Compound No. 2-99, 1-Methyl-3-{3-[1-(3-chlorobenzyl)-4-piperidyl]-propionyl}indazole hydrochloride] | 31.7 nM
